Data reported in PMC8611843 (BMC Cancer, 2021).
Where two headings read alike, the source gives them in different places.

Assays:
[1] = Electrocardiogram, change in QTc interval; type: in vivo, Japanese patients; conditions: patients tested
Protocol: (§1) The primary endpoint was safety. The severity of adverse events (AEs) was evaluated using National Cancer Institute Common Terminology Criteria for Adverse Events version 4.03 [21].

[2] = system: PBMCs derived from lung cancer patients; set-up: method as in PMID 28408401; conditions: cited from earlier work
[3] = Phase 1 3 + 3 dose-escalation study: safety, DLTs and drug-related AEs (CTCAE v4.03); type: in vivo
Protocol: This study was based on a 3 + 3 dose-escalation design (Additional file 1). […] The duration of cycle 0 was 7 days and that of each cycle after cycle 1 was 28 days in principle. Treatment continued until progressive disease (PD) or discontinuation for other reasons (Additional file 1).
as §1
However, patients with nausea, vomiting, diarrhea, and hypophosphatemia were allowed to continue treatment without interruption by receiving the appropriate care.
AEs were summarized by System Organ Class and Preferred Term according to the Medical Dictionary for Regulatory Activities, version 20.1. The Kaplan-Meier method was used to estimate the median PFS (mPFS). PFS is defined as the duration of time from day 1 to the date of death or of PD, whichever came first. Patients who received subsequent therapy before confirmation of PD or in whom neither PD nor death was confirmed were censored at the last time point of non-PD confirmation. Clinical benefit rate (CBR) was defined as the percentage of patients achieving complete response (CR) or partial response (PR), or who maintained stable disease (SD) for more than 6 months.

[4] = Plasma ENT concentration and PK parameters (LC/MS/MS); type: in vivo, Japanese patients
Protocol: The PK parameters assessed after single and/or combination therapy included time at which maximum plasma concentration (Cmax) was observed (tmax), and the area under the plasma concentration-time curve from time 0–168 h (AUC0–168).

[5] = system: Ac-K levels in CD19+ cells; assay: Protein lysine acetylation (Ac-K) levels in PBMCs; type: in vivo, Japanese patients; conditions: 24 h after first administration
Protocol: Ac-K levels in CD19+ cells, CD56+ CD16- cells, CD14+ monocytes, CD16+ cells, CD3+ T-cells, and CD45+ cells were measured using the previously reported methods, with a modification where antiacetylated lysine monoclonal antibody (BioLegend, San Diego, CA, USA; Clone 15G10, Cat. 623406) was used.

[6] = once weekly; cited from earlier work
[7] = system: HLA-DR, CD69, ICOS on CD4+ and CD8+ T-cells; assay: T-cell activation markers on CD4+ and CD8+ T-cells in PBMCs; type: in vivo, Japanese patients; conditions: Cohorts 1–3
Protocol: Staining of CD3+ cells was performed using antibodies (all from BioLegend) against CD4 (Clone RPA-T4, Cat. 300512), CD8 (Clone SK-1, Cat. 344718), CD69 (Clone FN50, Cat. 310910), inducible T-cell costimulator (ICOS; Clone […], Cat. 313514), and human leukocyte antigen-DR (HLA-DR; Clone L243, Cat. 307630).

[8] = system: HR+/HER2− advanced or metastatic BC; conditions: BOLERO-2, cited from earlier work
[9] = system: HR+/HER2− advanced or metastatic BC; set-up: method as in PMID 23650416; conditions: ENCORE 301, N = 130; cited from earlier work
[10] = Cohort 1 N = 3, ENT 3 mg mono → EXE combo
[11] = Cohort 2 N = 3, ENT 5 mg mono → EXE combo
[12] = Cohort 3 N = 3, ENT 10 mg mono → EXE combo
[13] = Cohort 4 N = 3, ENT 5 mg + EXE combo
[14] = Total N = 12, as of data cut-off date

Nc1ccccc1NC(=O)c1ccc(CNC(=O)OCc2cccnc2)cc1 [ENT, Entinostat]
Effect on electrocardiograms [1]: no effect | T-cell activation markers such as CD69 [2]: increases | Anemia, G2 (n patients, drug-related AE) [3, 10]: 1 | Back pain, G1 (n patients, drug-related AE) [3, 10]: 1 | Diarrhea, G2 (n patients, drug-related AE) [3, 10]: 1 | Hypoalbuminemia, G1 (n patients, drug-related AE) [3, 10]: 1 | Hypoalbuminemia, G2 (n patients, drug-related AE) [3, 10]: 1 | Neutrophil count decreased, G2 (n patients, drug-related AE) [3, 10]: 2 | Neutrophil count decreased, G3 (n patients, drug-related AE) [3, 10]: 1 | Platelet count decreased, G1 (n patients, drug-related AE) [3, 10]: 2 | Pneumonitis, G1 (n patients, drug-related AE) [3, 10]: 1 | Weight decreased, G2 (n patients, drug-related AE) [3, 10]: 1 | White blood cell count decreased, G1 (n patients, drug-related AE) [3, 10]: 1 | White blood cell count decreased, G2 (n patients, drug-related AE) [3, 10]: 1 | Anemia, G1 (n patients, drug-related AE) [3, 11]: 1 | Decreased appetite, G1 (n patients, drug-related AE) [3, 11]: 1 | Diarrhea, G1 (n patients, drug-related AE) [3, 11]: 1 | Fatigue, G1 (n patients, drug-related AE) [3, 11]: 1 | Gastritis, G1 (n patients, drug-related AE) [3, 11]: 1 | Headache, G1 (n patients, drug-related AE) [3, 11]: 1 | Hypoalbuminemia, G2 (n patients, drug-related AE) [3, 11]: 1 | Hypophosphatemia, G3 (n patients, drug-related AE) [3, 11]: 2 | Nausea, G1 (n patients, drug-related AE) [3, 11]: 2 | Neutrophil count decreased, G2 (n patients, drug-related AE) [3, 11]: 1 | Neutrophil count decreased, G3 (n patients, drug-related AE) [3, 11]: 1 | Platelet count decreased, G1 (n patients, drug-related AE) [3, 11]: 1 | Platelet count decreased, G3 (n patients, drug-related AE) [3, 11]: 1 | White blood cell count decreased, G2 (n patients, drug-related AE) [3, 11]: 1 | Anemia, G2 (n patients, drug-related AE) [3, 12]: 1 | Back pain, G1 (n patients, drug-related AE) [3, 12]: 1 | Decreased appetite, G1 (n patients, drug-related AE) [3, 12]: 1 | Fatigue, G1 (n patients, drug-related AE) [3, 12]: 1 | Headache, G1 (n patients, drug-related AE) [3, 12]: 1 | Hypoalbuminemia, G2 (n patients, drug-related AE) [3, 12]: 2 | Hypophosphatemia, G2 (n patients, drug-related AE) [3, 12]: 1 | Hypophosphatemia, G3 (n patients, drug-related AE) [3, 12]: 1 | Nausea, G1 (n patients, drug-related AE) [3, 12]: 2 | Neutrophil count decreased, G2 (n patients, drug-related AE) [3, 12]: 1 | Platelet count decreased, G1 (n patients, drug-related AE) [3, 12]: 1 | White blood cell count decreased, G2 (n patients, drug-related AE) [3, 12]: 1 | Anemia, G3 (n patients, drug-related AE) [3, 13]: 1 | Fatigue, G1 (n patients, drug-related AE) [3, 13]: 1 | Gastritis, G1 (n patients, drug-related AE) [3, 13]: 1 | Hypoalbuminemia, G1 (n patients, drug-related AE) [3, 13]: 1 | Hypoalbuminemia, G2 (n patients, drug-related AE) [3, 13]: 1 | Hypophosphatemia, G3 (n patients, drug-related AE) [3, 13]: 1 | Nausea, G1 (n patients, drug-related AE) [3, 13]: 2 | Neutrophil count decreased, G2 (n patients, drug-related AE) [3, 13]: 1 | Neutrophil count decreased, G3 (n patients, drug-related AE) [3, 13]: 1 | Platelet count decreased, G2 (n patients, drug-related AE) [3, 13]: 1 | Platelet count decreased, G3 (n patients, drug-related AE) [3, 13]: 1 | Pneumonitis, G1 (n patients, drug-related AE) [3, 13]: 1 | Weight decreased, G1 (n patients, drug-related AE) [3, 13]: 1 | White blood cell count decreased, G2 (n patients, drug-related AE) [3, 13]: 1 | Drug-related hypophosphatemia, grade 1 or 2 ([3]; DLT observation period): one patient in Cohorts 2, 3, and 4 | Drug-related nausea, grade 1 ([3]; DLT observation period): one patient in Cohort 3 and two patients in Cohort 4 | Drug-related platelet count decreased, grade 1 or 2 ([3]; DLT observation period): two patients in Cohort 4 | DLTs or grade 3–5 AEs ([3]; DLT observation period, ENT 3 mg or 5 mg once weekly or 10 mg single dose mono, ENT 5 mg weekly + EXE 25 mg/d): no DLTs or grade 3–5 AEs occurred | Anemia, G1 (n patients, drug-related AE) [3, 14]: 1 | Anemia, G2 (n patients, drug-related AE) [3, 14]: 2 | Anemia, G3 (n patients, drug-related AE) [3, 14]: 1 | Back pain, G1 (n patients, drug-related AE) [3, 14]: 2 | Decreased appetite, G1 (n patients, drug-related AE) [3, 14]: 2 | Diarrhea, G1 (n patients, drug-related AE) [3, 14]: 1 | Diarrhea, G2 (n patients, drug-related AE) [3, 14]: 1 | Fatigue, G1 (n patients, drug-related AE) [3, 14]: 3 | Gastritis, G1 (n patients, drug-related AE) [3, 14]: 2 | Headache, G1 (n patients, drug-related AE) [3, 14]: 2 | Hypoalbuminemia, G1 (n patients, drug-related AE) [3, 14]: 2 | Hypoalbuminemia, G2 (n patients, drug-related AE) [3, 14]: 5 | Hypophosphatemia, G2 (n patients, drug-related AE) [3, 14]: 1 | Hypophosphatemia, G3 (n patients, drug-related AE) [3, 14]: 4 | Nausea, G1 (n patients, drug-related AE) [3, 14]: 6 | Neutrophil count decreased, G2 (n patients, drug-related AE) [3, 14]: 5 | Neutrophil count decreased, G3 (n patients, drug-related AE) [3, 14]: 3 | Platelet count decreased, G1 (n patients, drug-related AE) [3, 14]: 4 | Platelet count decreased, G2 (n patients, drug-related AE) [3, 14]: 1 | Platelet count decreased, G3 (n patients, drug-related AE) [3, 14]: 2 | Pneumonitis, G1 (n patients, drug-related AE) [3, 14]: 2 | Weight decreased, G1 (n patients, drug-related AE) [3, 14]: 1 | Weight decreased, G2 (n patients, drug-related AE) [3, 14]: 1 | White blood cell count decreased, G1 (n patients, drug-related AE) [3, 14]: 1 | White blood cell count decreased, G2 (n patients, drug-related AE) [3, 14]: 4 | Study treatment interrupted because of grade 3 platelet count decreased ([3]; by data cut-off date): two patients | Study treatment interrupted owing to grade 3 neutrophil count decreased ([3]; by data cut-off date): Three patients | ENT dose reduction ([3]; during DLT observation period, all cohorts): not observed | ENT dose reduction from 5 mg to 3 mg owing to platelet count decreased and hypophosphatemia ([3]; in combination with EXE after DLT observation period): one patient in Cohort 2 and two patients in Cohort 4 | Serious AEs (SAEs) ([3]; start of study to cut-off date): one case each of abdominal pain (grade 2), pulmonary embolism (grade 3), maculopapular rash (grade 3), and femoral neck fracture (grade 3) | AUC0–168 dose dependency ([4]; ENT alone, 3, 5, 10 mg): increased linearly with dose | Steady state reached ([4]; all cohorts): cycle 1, day 15 | Tmax ([4]; human, plasma, oral administration, all cohorts): 28.8 to 85.2 min | Cmax dose dependency ([4]; intersubject variability high at 10 mg): increased in accordance with dose escalation between 3 mg and 5 mg | Increase of Ac-K levels in CD19+ cells vs prior to administration ([5]; Cohort 1 (ENT 3 mg)): about 1.5 fold | Increase of Ac-K levels in CD19+ cells vs prior to administration ([5]; Cohort 2 (ENT 5 mg)): ~1.9 fold | Increase of Ac-K levels in CD19+ cells vs prior to administration ([5]; Cohort 3 (ENT 10 mg)): ~2.7 fold | Maximum tolerated dose [6]: 4 mg/m^2 | Expression of HLA-DR in CD4+ and CD8+ T-cells [7]: increased over time | Expression of CD69 ([7]; some patients, greater with SD ≥ 6 months): Increased expression

C=C1C[C@@H]2[C@H](CC[C@]3(C)C(=O)CC[C@@H]23)[C@@]2(C)C=CC(=O)C=C12 [EXE, exemestane]
mPFS ([8]; 35 Japanese patients): 4.21 months | mPFS ([8]; second-line or later hormonal therapy): 4.1 months | Influence on the PK of ENT ([4]; ENT monotherapy vs ENT + EXE 25 mg/d): no influence | Median OS [9]: 19.84 months | Median PFS [9]: 2.3 months
